Measured values from US8642553B2, “Acacia macrostachya seed extract and compositions containing same” (Laboratoires Expanscience, priority 2009, dated 2014).

Experiments:
[1] = system: Normal human keratinocytes; assay: Screening of expression of junction protein messengers in keratinocytes (PCR array); type: cell-based; details: 1.5 mM, 24 hours, Control: 100%
Protocol: The activity of Acacia hydrolysate was studied by quantitative RT-PCR on the level of expression of 16 genes mainly coding for tight junction proteins as well as for the major proteins of the communicating junctions of the epidermis. […] The expression of the markers was evaluated by quantitative RT-PCR (PCR array). The variation in the expression of the markers studied compared to the control was expressed in percentage (Control: 100%). The levels of expression are classified in the following manner: […]

Normal human fibroblasts = assay: Gene expression of markers of the dermal matrix and antioxidant defences by fibroblasts (quantitative RT-PCR in real time); type: cell-based; details: 5 ng/ml, 24h
Protocol: The effect of Acacia hydrolysate on the modulation of the extra-cellular matrix of the dermis and on the stimulation of the anti-oxidant defences was evaluated on a dermal fibroblasts model in which the gene expression of elastin, MMP1 and heme oxygenase 1 was studied by quantitative RT-PCR in real time.
Normal human fibroblasts were treated for 24h with 0.01% and 0.05% Acacia hydrolysate (w/v) or with the reference TGFβ1 at 5 ng/ml. The gene expression of the selected markers was analysed by quantitative RT-PCR in real time.
The results were analysed statistically by a one-way variance analysis (ANOVA) followed by a Dunnett test: • ns p>0.05: not significant • *0.01<p<0.05: significant • **0.001<p<0.01: very significant • ***p<0.001: highly significant
The level of gene expression was expressed in relative quantity (RQ) and the effect of the treatment in relation to the control cells in percentage increase or inhibition.

Row | Molecule | Cingulin messenger expression [1] | Claudin 1 messenger expression [1] | Gap junction protein (β2 messenger expression) [1] | Occludin messenger expression [1] | ELASTIN gene expression, percentage increase or inhibition vs control cells (Normal human fibroblasts) | MMP1 gene expression, percentage increase or inhibition vs control cells (Normal human fibroblasts) | ELASTIN gene expression, relative quantity (RQ) (Normal human fibroblasts; control cells 1.00) | MMP1 gene expression, relative quantity (RQ) (Normal human fibroblasts; control cells 1.00)
1 | [Ca+2].[Cl-].[Cl-] [CaCl2, calcium chloride] | 337 % Control | 216 % Control | 43 % Control | 445 % Control |  |  |  | 
2 | TGFβ1: reference TGFβ1 at 5 ng/ml |  |  |  |  | +559% | −88% | 6.59 | 0.12
